# Reference: patent publication US9326973B2, “Hepatitis C virus inhibitors” (priority 2012, dated 2016)
# Tested on: HCV replicon, genotype-1a variant with glutamine 30 changed to glutamate in the NS5A protein
# Test: microbe, parasite or virus in culture
# Type: cell-based, HCV genotype 1a
# Conditions: HCV replicon genotype 1a Q30E (Q→E) variant; test compound titrated with an NS5A-targeting compound (BMS-790052 fixed at 200 nM); ranking of synergist activity
# Summary of the method: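 Synergy was assessed by combining several fixed amounts of an NS5A-targeting compound with a titration of the second compound of interest.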
row,Compound,Fold-Synergistic 1a (Q30E) [fold]
1,CO[C@@H](C(=O)N[C@H](c1nc(-c2ccc(-c3ccc(-c4c[nH]c([C@@H](NC(=O)[C@H](OC)C(C)C)C(C)(C)C)n4)cc3)cc2)c[nH]1)C(C)(C)C)C(C)C [Compound L-86],>100
2,CC(C)CC(=O)N[C@@H](C)c1nc(-c2ccc(-c3ccc(-c4c[nH]c([C@H](C)NC(=O)CC(C)C)n4)cc3)cc2)c[nH]1 [Compound N-39],>10
3,CC[C@H](NC(=O)CC(C)C)c1nc(-c2ccc(-c3ccc(-c4c[nH]c([C@H](CC)NC(=O)CC(C)C)n4)cc3)cc2)c[nH]1 [Compound N-42],>100
4,Cc1cc(-c2ccc(-c3c[nH]c([C@@H](NC(=O)C4(C)CCCC4)C(C)C)n3)cc2)ccc1-c1c[nH]c([C@@H](NC(=O)C2(C)CCCC2)C(C)C)n1 [Compound N-80],>100
5,Cc1cn(CCC(=O)N2CCC[C@H]2c2ncc(-c3ccc(-c4ccc(-c5cnc([C@@H]6CCCN6C(=O)CCn6cc(C)c7ccccc76)[nH]5)cc4)cc3)[nH]2)c2ccccc12 [Compound S-153],>10
6,Cn1cc(C(=O)N2CCC[C@H]2c2ncc(-c3ccc(-c4ccc(-c5cnc([C@@H]6CCCN6C(=O)c6cn(C)c7ccccc67)[nH]5)cc4)cc3)[nH]2)c2ccccc21 [Compound S-142],>10
7,CC1(C)CC(C(=O)N[C@H](c2nc(-c3ccc(-c4ccc(-c5c[nH]c([C@@H](NC(=O)C6CCOC(C)(C)C6)C(C)(C)C)n5)cc4)cc3)c[nH]2)C(C)(C)C)CCO1 (stereo partly drawn) [Compound W-122],>100
8,CC(C)(C)OC(=O)N1C[C@@H](O)C[C@H]1C(=O)N[C@H](c1nc(-c2ccc(-c3ccc(-c4c[nH]c([C@@H](NC(=O)[C@@H]5C[C@H](O)CN5C(=O)OC(C)(C)C)C(C)(C)C)n4)cc3)cc2)c[nH]1)C(C)(C)C [Compound W-98],>100
9,CC(C)(C)[C@H](NC(=O)C1CCC(C(F)F)CC1)c1nc(-c2ccc(-c3ccc(-c4c[nH]c([C@@H](NC(=O)C5CCC(C(F)F)CC5)C(C)(C)C)n4)cc3)cc2)c[nH]1 (stereo partly drawn) [Compound Y-71],>100
10,COC(=O)N[C@@H](C(=O)N[C@H](c1ncc(-c2ccc(-c3ccc(-c4cnc([C@@H](NC(=O)[C@H](NC(=O)OC)C(C)C)C(C)C)o4)cc3)cc2)o1)C(C)C)C(C)C [Compound N-1],>10
11,CC(C)(C)C(=O)N[C@H](c1nc(-c2ccc(-c3ccc(-c4c[nH]c([C@@H](NC(=O)C(C)(C)C)C5CCCC5)n4)cc3)cc2)c[nH]1)C1CCCC1 [Compound N-44],>100
12,CC(=O)N1CCC[C@H]1c1ncc(-c2ccc(-c3ccc(-c4cnc([C@@H]5CCCN5C(C)=O)[nH]4)cc3)cc2)[nH]1 [Compound S-113],<10
13,CC(C)[C@H](NC(=O)c1ccccc1F)c1nc(-c2ccc(-c3ccc(-c4c[nH]c([C@@H](NC(=O)c5ccccc5F)C(C)C)n4)c(F)c3)cc2)c[nH]1 [Compound N-92],>100
14,CC(C)[C@H](NC(=O)C(C)(C)C)c1nc(-c2ccc(-c3ccc(-c4c[nH]c([C@@H](NC(=O)C(C)(C)C)C(C)C)n4)cc3F)cc2)c[nH]1 [Compound N-100],>100
15,O=C(c1cccc(-c2ccccc2)c1)N1CCC[C@H]1c1ncc(-c2ccc(-c3ccc(-c4cnc([C@@H]5CCCN5C(=O)c5cccc(-c6ccccc6)c5)[nH]4)cc3)cc2)[nH]1 [Compound S-128],>10
16,CN(C(=O)OC(C)(C)C)C1(C(=O)N[C@H](c2nc(-c3ccc(-c4ccc(-c5c[nH]c([C@@H](NC(=O)C6(N(C)C(=O)OC(C)(C)C)CC6)C(C)(C)C)n5)cc4)cc3)c[nH]2)C(C)(C)C)CC1 [Compound L-13],>100
17,CC(C)(C)C(=O)N1C[C@H](F)C[C@H]1C(=O)N[C@H](c1nc(-c2ccc(-c3ccc(-c4c[nH]c([C@@H](NC(=O)[C@@H]5C[C@@H](F)CN5C(=O)C(C)(C)C)C(C)(C)C)n4)cc3)cc2)c[nH]1)C(C)(C)C [Compound W-105],>100
18,O=C(c1cnc2ccccc2n1)N1CCC[C@H]1c1ncc(-c2ccc(-c3ccc(-c4cnc([C@@H]5CCCN5C(=O)c5cnc6ccccc6n5)[nH]4)cc3)cc2)[nH]1 [Compound S-126],>100
19,O=C(C1Cc2ccccc2O1)N1CCC[C@H]1c1ncc(-c2ccc(-c3ccc(-c4cnc([C@@H]5CCCN5C(=O)C5Cc6ccccc6O5)[nH]4)cc3)cc2)[nH]1 (stereo partly drawn) [Compound S-157],>10
20,CC(C)(C(=O)N[C@H](c1nc(-c2ccc(-c3ccc(-c4c[nH]c([C@@H](NC(=O)C(C)(C)C(=O)N5CC(O)C5)C(C)(C)C)n4)cc3)cc2)c[nH]1)C(C)(C)C)C(=O)N1CC(O)C1 [Compound W-144],>10
21,CC(C)(C)OC(=O)N1CC2(CC(C(=O)N[C@H](c3nc(-c4ccc(-c5ccc(-c6c[nH]c([C@@H](NC(=O)C7CC8(C7)CN(C(=O)OC(C)(C)C)C8)C(C)(C)C)n6)cc5)cc4)c[nH]3)C(C)(C)C)C2)C1 (stereo partly drawn) [Compound L-57],>100

row,Compound,Fold-Synergistic 1a (Q30E) [fold]
1,CC(C)(C)[C@H](NC(=O)C1CCCCS1)c1nc(-c2ccc(-c3ccc(-c4c[nH]c([C@@H](NC(=O)C5CCCCS5)C(C)(C)C)n4)cc3)cc2)c[nH]1 (stereo partly drawn) [Compound P-173],>100
2,COC(=O)N1C[C@H](F)C[C@H]1C(=O)N[C@H](c1nc(-c2ccc(-c3ccc(-c4c[nH]c([C@@H](NC(=O)[C@@H]5C[C@@H](F)CN5C(=O)OC)C(C)(C)C)n4)cc3)cc2)c[nH]1)C(C)(C)C [Compound W-109],>100
3,CC(C)(C)[C@H](NC(=O)[C@H]1CC[C@@H](O)CC1)c1nc(-c2ccc(-c3ccc(-c4c[nH]c([C@@H](NC(=O)[C@H]5CC[C@@H](O)CC5)C(C)(C)C)n4)cc3)cc2)c[nH]1 [Compound W-134],>100
4,CCC(C)[C@H](NC(=O)[C@H](NC(=O)OC)C(C)C)c1nc(-c2ccc(-c3ccc(-c4c[nH]c([C@@H](NC(=O)[C@H](NC(=O)OC)C(C)C)C(C)CC)n4)cc3)cc2)c[nH]1 (stereo partly drawn) [Compound N-32],>10
5,O=C(C1CCCC1)N1CCC[C@H]1c1ncc(-c2ccc(-c3ccc(-c4cnc([C@@H]5CCCN5C(=O)C5CCCC5)[nH]4)cc3)cc2)[nH]1 [Compound S-164],<10
6,CC(C)[C@H](NC(=O)c1cc(Cl)ccc1F)c1nc(-c2ccc3c(c2)Cc2cc(-c4c[nH]c([C@@H](NC(=O)c5cc(Cl)ccc5F)C(C)C)n4)ccc2-3)c[nH]1 [Compound N-73],>100
7,COC(=O)N[C@@H](C(=O)N[C@@H](CC(C)C)c1nc(-c2ccc(-c3ccc(-c4c[nH]c([C@H](CC(C)C)NC(=O)[C@H](NC(=O)OC)C(C)C)n4)cc3)cc2)c[nH]1)C(C)C [Compound N-29],>10
8,CC(C)[C@H](NC(=O)C(=O)N1CCCCCC1)c1nc(-c2ccc(-c3ccc(-c4c[nH]c([C@@H](NC(=O)C(=O)N5CCCCCC5)C(C)C)n4)cc3)cc2)c[nH]1 [Compound W-52],>100
9,NC(=O)CCC(=O)N1CCC[C@H]1c1ncc(-c2ccc(-c3ccc(-c4cnc([C@@H]5CCCN5C(=O)CCC(N)=O)[nH]4)cc3)cc2)[nH]1 [Compound S-186],<10
10,C#CCCC(=O)N1CCC[C@H]1c1ncc(-c2ccc(-c3ccc(-c4cnc([C@@H]5CCCN5C(=O)CCC#C)[nH]4)cc3)cc2)[nH]1 [Compound S-179],<10
11,CC(C)CC(=O)NC(C)(C)c1nc(-c2ccc(-c3ccc(-c4c[nH]c(C(C)(C)NC(=O)CC(C)C)n4)cc3)cc2)c[nH]1 [Compound N-26],<10
12,COC(=O)N[C@H](C(=O)N[C@H](c1ncc(-c2ccc(C#Cc3ccc(-c4cnc([C@@H](NC(=O)[C@@H](NC(=O)OC)C(C)C)C(C)C)[nH]4)cc3)cc2)[nH]1)C(C)C)C(C)C [Compound N-5],>10
13,CC(C)[C@H](NC(=O)C1(N2CCC(F)(F)CC2)COC1)c1nc(-c2ccc(-c3ccc(-c4c[nH]c([C@@H](NC(=O)C5(N6CCC(F)(F)CC6)COC5)C(C)C)n4)cc3)cc2)c[nH]1 [Compound W-64],>100
14,CC(C)(C)[C@H](NC(=O)[C@@H]1CCCCN1CC(F)(F)F)c1nc(-c2ccc(-c3ccc(-c4c[nH]c([C@@H](NC(=O)[C@@H]5CCCCN5CC(F)(F)F)C(C)(C)C)n4)cc3)cc2)c[nH]1 [Compound L-51],>100
15,CCCC(C)C(=O)N1CCC[C@H]1c1ncc(-c2ccc(-c3ccc(-c4cnc([C@@H]5CCCN5C(=O)C(C)CCC)[nH]4)cc3)cc2)[nH]1 (stereo partly drawn) [Compound S-170],<10
16,CC(C)(C)[C@H](NC(=O)[C@@H]1CCCO1)c1nc(-c2ccc(-c3ccc(-c4c[nH]c([C@@H](NC(=O)[C@@H]5CCCO5)C(C)(C)C)n4)cc3)cc2)c[nH]1 [Compound L-65],>100
17,CC(C)[C@H](NC(=O)C(=O)N(CC(F)(F)F)C(C)C)c1nc(-c2ccc(-c3ccc(-c4c[nH]c([C@@H](NC(=O)C(=O)N(CC(F)(F)F)C(C)C)C(C)C)n4)cc3)cc2)c[nH]1 [Compound W-65],>100
18,CC(C)(C)[C@H](NC(=O)C(=O)N1CCC(C(F)(F)F)CC1)c1nc(-c2ccc(-c3ccc(-c4c[nH]c([C@@H](NC(=O)C(=O)N5CCC(C(F)(F)F)CC5)C(C)(C)C)n4)cc3)cc2)c[nH]1 [Compound W-60],>100
19,CC(C)(C)[C@H](NC(=O)[C@H]1CCC(=O)O1)c1nc(-c2ccc(-c3ccc(-c4c[nH]c([C@@H](NC(=O)[C@H]5CCC(=O)O5)C(C)(C)C)n4)cc3)cc2)c[nH]1 [Compound L-79],<10
20,O=C(CCN1CCOCC1)N1CCC[C@H]1c1ncc(-c2ccc(-c3ccc(-c4cnc([C@@H]5CCCN5C(=O)CCN5CCOCC5)[nH]4)cc3)cc2)[nH]1 [Compound S-196],<10
21,Cc1ncccc1C(=O)N1CCC[C@H]1c1ncc(-c2ccc(-c3ccc(-c4cnc([C@@H]5CCCN5C(=O)c5cccnc5C)[nH]4)cc3)cc2)[nH]1 [Compound S-188],<10
